# PubChem BioAssay (NCI)
# Where “and” joins values, the source holds several entries; their conditions need not be identical. Equal entries are not always repeated.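 Step 1: Grow cells in 96-well plates. Step 2: Expose to compound for 48 hours at 5 concentrations. Step 3: Interpolate endpoints linearly; if unreached, use highest concentration. GI50 marks 50% less growth. The concentration for full growth arrest is given as TGI.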
# Columns and labels:
# Experiment in all cases: NCI tumour cell line growth inhibition, 48 h
# BT-549 breast = system: BT-549 breast
# EKVX NSCLC = system: EKVX NSCLC
# MDA-MB-231 breast = system: MDA-MB-231 breast
# OVCAR-5 ovarian = system: OVCAR-5 ovarian
# SF-268 CNS = system: SF-268 CNS
# SF-295 CNS = system: SF-295 CNS
# SN12C renal = system: SN12C renal
# SNB-75 CNS = system: SNB-75 CNS
# TK-10 renal = system: TK-10 renal
# UACC-257 melanoma = system: UACC-257 melanoma
Compound,GI50 (BT-549 breast) [nM],TGI (BT-549 breast) [µM],GI50 (EKVX NSCLC) [µM],TGI (EKVX NSCLC) [µM],GI50 (MDA-MB-231 breast) [µM],TGI (MDA-MB-231 breast) [µM],GI50 (OVCAR-5 ovarian),TGI (OVCAR-5 ovarian) [µM],GI50 (SF-268 CNS) [µM],TGI (SF-268 CNS),GI50 (SF-295 CNS) [µM],TGI (SF-295 CNS),GI50 (SN12C renal) [µM],TGI (SN12C renal),GI50 (SNB-75 CNS) [µM],TGI (SNB-75 CNS) [µM],GI50 (TK-10 renal),TGI (TK-10 renal),GI50 (UACC-257 melanoma),TGI (UACC-257 melanoma)
O=C(O)c1nc(NCc2nc3cc(Cl)ccc3o2)n[nH]1,> 100000,> 100,> 100,> 100,> 100,> 100,> 100 µM,> 100,> 100,> 100 µM,> 100,> 100 µM,> 100,> 100 µM,> 100,> 100,> 100 µM,> 100 µM,> 100 µM,> 100 µM
COc1cc2c(c3c1c(=O)c1ccccc1n3C)C=CC1(CCCC1)O2,–,25.5,–,26.4,–,38.2,–,27,–,46.8 µM,–,12.1 µM,–,37.2 µM,–,24.8,–,33.7 µM,–,31 µM
COC(=O)C1=C(O)C(C(=O)OC)C2CC(=O)CC1C2(C)C (stereo not drawn),–,> 100,–,> 100,–,> 100,–,> 100,–,> 100 µM,–,> 100 µM,–,> 100 µM,–,> 100,–,> 100 µM,–,> 100 µM
CCSCCCSCCSCC,–,> 100,–,> 100,–,> 100,–,> 100,–,> 100 µM,–,> 100 µM,–,> 100 µM,–,> 100,–,> 100 µM,–,> 100 µM
O=C1/C(=C/c2ccc([N+](=O)[O-])cc2)CN(C(=O)CCN2CCC(=NO)CC2)C/C1=C\c1ccc([N+](=O)[O-])cc1,1710,4.32,2.3,10.1,0.869,2.92,1.57 µM,3.97,1.07,6.01 µM,2.09,5.39 µM,0.677,2.51 µM,1.95,9.05,2.01 µM,6.14 µM,2.43 µM,7.97 µM
CCCN1C(=O)NC(=O)C(CC)(N2C(=O)c3c(F)c(F)c(F)c(F)c3C2=O)C1=O (stereo not drawn),2190,5.29,2.33,6.62,1.99,4.59,2.04 µM,4.11,2,5.07 µM,3.93,14.6 µM,2.16,6.14 µM,1.81,4.52,2.29 µM,6 µM,2.99 µM,8.63 µM
CC(=O)Nc1ccc(-c2cc(C(=O)O)c3cc4ccccc4cc3n2)cc1,–,> 100,–,> 100,–,> 100,–,> 100,–,> 100 µM,–,> 100 µM,–,> 100 µM,–,> 100,–,> 100 µM,–,> 100 µM
O=C(NCC1CC1)c1ccc(-c2cccc(C(=O)NC3CC3)c2)cc1,> 25000,> 25,> 25,> 25,> 25,> 25,> 25 µM,> 25,> 25,> 25 µM,> 25,> 25 µM,> 25,> 25 µM,> 25,> 25,> 25 µM,> 25 µM,> 25 µM,> 25 µM
O=[N+]([O-])c1ccccc1N=Nc1c(O)[nH]c2cccc(C(F)(F)F)c12,–,> 100,–,> 100,–,91.3,–,> 100,–,> 100 µM,–,> 100 µM,–,73.8 µM,–,> 100,–,> 100 µM,–,34.5 µM
C=C1CCC2C3(C)COC(C)(C)OC3CCC2(C)C1C/C=C1/C(=O)OCC1OC(C)=O (stereo not drawn),2330,6.79,9.5,24.4,7.07,22.6,3.78 µM,11.2,5.83,17.6 µM,11.5,25.9 µM,5.95,22.6 µM,5.23,16.5,5.24 µM,16.3 µM,2.02 µM,5.62 µM
c1ccc(NN(Cc2cnccn2)c2ccccc2)cc1,–,> 100,–,> 100,–,> 100,–,> 100,–,> 100 µM,–,> 100 µM,–,> 100 µM,–,> 100,–,> 100 µM,–,> 100 µM
C=CCc1c(Cl)nc(Cl)nc1Cl,–,0.641,–,2.58,–,1.82,–,2.02,–,14.4 µM,–,3.94 µM,–,1.46 µM,–,5.87,–,3.35 µM,–,1.9 µM
CN(C)c1cc2ccccc2oc1=O,–,> 100,–,> 100,–,> 100,–,> 100,–,> 100 µM,–,> 100 µM,–,> 100 µM,–,> 100,–,> 100 µM,–,> 100 µM
Cc1ccc(S(=O)(=O)SC/C=C\CSS(=O)(=O)c2ccc(C)cc2)cc1,–,25.4,–,> 100,–,> 31.6,> 78.5 µM and 30 µM,> 100,–,> 73.2 µM and 74.4 µM,–,> 95.7 µM and 50.7 µM,–,88.5 µM and 37.1 µM,–,> 100,50 µM and 20.4 µM,> 100 µM and 45.5 µM,42.3 µM and 20.8 µM,> 56.2 µM and 45.1 µM
